{
  "source": "patent US8034899B2",
  "about": "“HIV fusion inhibitor peptides with improved biological properties” (priority 2006, dated 2011)",
  "key": {"[1]": {"assay": "Pharmacokinetics after intravenous dosing in cynomolgus monkeys", "assay_type": "in vivo, cynomolgus monkeys (Macaca fasicularis)", "conditions": "plasma", "description": "For determining pharmacokinetic properties, an HIV fusion inhibitor peptide or a base sequence from which an HIV fusion inhibitor peptide is derived was dosed intravenously in cynomolgus monkeys (Macaca fasicularis) (other animal models may be used for determining pharmacokinetic properties, as known in the art). At various times post-dose, blood samples were drawn and plasma isolated by centrifugation. Plasma samples were stored frozen until analysis by LC-MS (liquid chromatography/mass spectrometry) in the electrospray, positive-ion mode. An HIV fusion inhibitor or base sequence was eluted from a C18 or C8 HPLC column with a gradient of acetonitrile in a buffer of 10 mM ammonium acetate, pH 6.8. At the time of analysis, plasma samples were deproteinated with either two or three volumes of acetonitrile containing 0.5% formic acid. Duplicate calibration standards in cynomolgus plasma samples were prepared at the same time as the samples and analyzed before and after the samples containing either HIV fusion inhibitor peptide or base sequence. Pharmacokinetic properties were calculated from the plasma concentration-time data using either mono-exponential or bi-exponential mathematical models. Models were derived by non-linear least squares optimization. A 1/C^2 weighting of concentrations was used. […]"}, "HIV-1 IIIB": {"test_system": "HIV-1 IIIB", "conditions": "cited from earlier work"}, "IIIB": {"test_system": "IIIB", "assay": "In vitro resistance selection in MT2 cells, cMAGI susceptibility, isolate IIIB", "assay_type": "cell-based, HIV", "conditions": "starting isolate IIIB", "from_the_text": "(§1) Assessment of biological properties included measurement of antiviral activity against HIV-1 strains. […] These assays score for reduction of infectious virus titer employing the indicator cell lines MAGI or the CCR5 expressing derivative cMAGI. Both cell lines exploit the ability of HIV-1 tat to transactivate the expression of a β-galactosidase reporter gene driven by the HIV-LTR. The β-gal reporter has been modified to localize in the nucleus and can be detected with the X-gal substrate as intense nuclear staining within a few days of infection. […] The number of infected cells for each control and peptide dilution was determined with the CCD-imager, and then the IC50 was calculated (expressed in μg/ml).\n(§2) MT2 cells were infected with virus isolates (IIIB, 030, 060 and 098) and cultured in increasing concentrations of SEQ ID NO:2 (enfuvirtide) or SEQ ID NO:9 to select for resistance. […] Cultures were monitored for cytopathic effect (CPE) using standard techniques and when maximal CPE was achieved, a small aliquot of virus was used for subsequent rounds of infection. […] Peptide-free virus stocks were characterized for gp41 genotypic changes by dideoxy sequencing chemistries and phenotypic susceptibility was determined using a cMAGI infectivity assay."}, "584.000030": {"test_system": "584.000030", "assay": "In vitro resistance selection in MT2 cells, cMAGI susceptibility, isolate 584.000030", "assay_type": "cell-based, HIV", "conditions": "starting isolate 584.000030", "from_the_text": "as §1, §2"}, "584.000060": {"test_system": "584.000060", "assay": "In vitro resistance selection in MT2 cells, cMAGI susceptibility, isolate 584.000060", "assay_type": "cell-based, HIV", "conditions": "starting isolate 584.000060", "from_the_text": "as §1, §2"}, "584.000098": {"test_system": "584.000098", "assay": "In vitro resistance selection in MT2 cells, cMAGI susceptibility, isolate 584.000098", "assay_type": "cell-based, HIV", "conditions": "starting isolate 584.000098", "from_the_text": "as §1, §2"}, "[2]": {"test_system": "virus isolates (IIIB, 030, 060 and 098)", "assay": "In vitro resistance selection, geometric mean over the four isolates", "assay_type": "cell-based, HIV", "conditions": "Geometric Mean of four isolates", "from_the_text": "MT2 cells were infected with virus isolates (IIIB, 030, 060 and 098) and cultured in increasing concentrations of SEQ ID NO:2 (enfuvirtide) or SEQ ID NO:9 to select for resistance. The initial peptide concentration was approximately 2 times the IC50 of each peptide against the corresponding wild type isolate. Peptide concentrations were maintained by adding fresh peptide every 1-3 days. Cultures were monitored for cytopathic effect (CPE) using standard techniques and when maximal CPE was achieved, a small aliquot of virus was used for subsequent rounds of infection. Peptide concentrations were increased 2 to 4-fold depending on the length of time in culture when compared to the growth rate of wild type virus. During the course of selection, peptide-free virus stocks were also collected. Peptide-free virus stocks were characterized for gp41 genotypic changes by dideoxy sequencing chemistries and phenotypic susceptibility was determined using a cMAGI infectivity assay."}, "[3]": {"conditions": "10 mg/ml in PBS, pH 7.3 to 7.5, 37° C., after several hours"}, "HIV-1LA1": {"test_system": "HIV-1LA1", "conditions": "cited from earlier work"}, "[4]": {"conditions": "no additional components; cited from earlier work"}},
  "data": [
    {"substance": "Ac-TTWEAWDRAIAEYAARIEALLRAAQEQQEKLEAALREL-NH2 [SEQ ID NO:10, TTWEAWDRAIAEYAARIEALLRAAQEQQEKLEAALREL]", "values": [
      {"measurement": "Clearance", "setting": "[1]", "value": "<0.33", "unit": "mL/min/kg"}
    ]},
    {"substance": "Ac-TTWEAWDRAIAEYAARIEALLRALQEQQEKNEAALREL-NH2 [SEQ ID NO:9, TTWEAWDRAIAEYAARIEALLRALQEQQEKNEAALREL]", "values": [
      {"measurement": "Clearance", "setting": "[1]", "value": "<0.33", "unit": "mL/min/kg"}
    ]},
    {"substance": "MTWMEWDREINNYTSLIHSLIEESQNQQEKNEQELL [T651]", "values": [
      {"measurement": "IC50 blocking infection of target cells", "setting": "HIV-1 IIIB", "value": 5, "unit": "ng/mL"}
    ]},
    {"substance": "enfuvirtide", "values": [
      {"measurement": "Fold Change in IC50", "setting": "IIIB", "value": 27, "unit": "fold"},
      {"measurement": "Fold Change in IC50", "setting": "584.000030", "value": 19, "unit": "fold"},
      {"measurement": "Fold Change in IC50", "setting": "584.000060", "value": 7, "unit": "fold"},
      {"measurement": "Fold Change in IC50", "setting": "584.000098", "value": 912, "unit": "fold"},
      {"measurement": "Fold Change in IC50", "setting": "[2]", "value": 42, "unit": "fold"},
      {"measurement": "stability of the solution (peptide remaining in solution)", "setting": "[3]", "value": "minimal peptide detected in solution"},
      {"measurement": "EC50 blocking infection of target cells", "setting": "HIV-1LA1", "value": 0.5, "unit": "ng/mL"},
      {"measurement": "concentration achievable in an injectable aqueous solution without problems of solubility and stability", "setting": "[4]", "value": "≤ 100", "unit": "mg/mL"}
    ]}
  ]
}
